18 compounds from patent US5045566A, “Novel imidate insecticides” (ICI Americas Inc., priority 1989, dated 1991) can be followed below.

Holding throughout (format): in vivo
Test [1] has as its system Housefly [Musca domestica]. The test is described as follows: Housefly contact mortality in dishes (HF), 48 hours. As to conditions: μg of test compound per 25 female flies. How it is done: (§1) The compounds in Tables 1 and 2 above were tested for insecticidal activity using the following testing procedures. LC50 values, based on the results of these tests and calculated according to dosage-mortality curves, are expressed in Table 3.
Housefly [Musca domestica]:
Test compounds were diluted in acetone and aliquots pipetted onto the bottom of aluminum dishes. To ensure even spreading of the chemical on the bottom of the dishes, 1 ml of acetone containing 0.01% peanut oil was also added to each dish. After all solvents had evaporated, the dishes were placed in circular cardboard cages containing 25 female houseflies, 1-2 days old. The cages were covered on the bottom with cellophane and on the top with tulle netting, and each contained a sugar-water saturated cotton plug for maintenance of the flies. Mortality was recorded after 48 hours. Test levels ranged from 100 μg/25 female houseflies downward. The LC-50 value is expressed below in Table 3 under the heading "HF", in terms of μg of the test compound per 25 female flies.

For test [2], the system named is Tobacco Budworm [Heliothis virescens (Fabricius)] eggs. In words: Tobacco budworm eggs (TBW-E). The settings on record: percent in solution; 2-day old eggs. Here is the method:
as §1
Tobacco Budworm [Heliothis virescens (Fabricius)]:
(b). Eggs: Paper towel patches of 2-day old eggs of the tobacco budworm were dipped in acetone solutions of the test compound and placed in petri dishes containing a portion of larval rearing medium. Treated eggs were maintained at 78° F. and mortality was recorded after all control eggs had hatched and the young larvae were feeding on the media. Test concentrations ranged from 0.1% downward. The LC-50 value is expressed below in Table 3 under the heading "TBW-E" in terms of percent of the test compound in the solution.

The test system of test [3] is Cabbage Looper [Trichoplusia ni (Hubner)]. The test is described as follows: Cabbage looper leaf dip (CL), 3-5 days. As to conditions: percent in solution, second-instar larvae. Here is the method: as §1
Cabbage Looper [Trichoplusia ni (Hubner)]:
Test compounds were diluted in a 50-50 acetone-water solution. Cotyledons of hyzini squash (Calabacita abobrinha), approximately 1×1.5 inches, were immersed in the test solutions for 2-3 seconds and placed on a wire screen to dry. The dried leaves were placed in petri dishes containing a moistened piece of filter paper and infested with 5 second-instar cabbage looper larvae. The dishes were placed in a high humidity chamber. Mortality of the larvae was recorded 3-5 days later. Test concentrations ranged from 0.1% downward. The LC-50 value is expressed below in Table 3 under the heading "CL" in terms of percent of the test compound in solution.

In the case of `CCC(C)C(=Nc1ccc(Cl)cc1)OCc1cccc(Oc2ccccc2)c1` (stereo not drawn) [Compound 26], the “LC50 HF” value in test [1] is over 100 µg. For the same compound, the “LC50 TBW E (eggs)” value in test [2] is given as over 0.1%. For the same compound, in test [3], the “LC50 CL” value was 0.007%.
Consider `CC(Cl)C(=Nc1ccc(Cl)c(Cl)c1)OCc1cccc(Oc2ccccc2)c1` (stereo not drawn) [Compound 27], for which the “LC50 HF” value in test [1] was over 100 µg. Besides, the “LC50 TBW E (eggs)” value in test [2] is reported as over 0.1%. The “LC50 CL” value in test [3] is 0.04%.
Turning to `CCC(=Nc1cccc(Cl)c1Cl)OCc1cccc(Oc2ccccc2)c1` [Compound 28], in test [1], the “LC50 HF” value was over 100 µg. In test [2], the “LC50 TBW E (eggs)” value was over 0.1%. The “LC50 CL” value in test [3] was 0.009%.
The corresponding values for `CCC(=Nc1ccc(Cl)c(Cl)c1)OCc1cccc(Oc2ccccc2)c1` [Compound 36] are 20 µg, over 0.1% and 0.024%.
Regarding `CCCC(=Nc1ccc(Cl)c(Cl)c1)OCc1cccc(Oc2ccccc2)c1` [Compound 38], the “LC50 HF” value in test [1] worked out at 33 µg. For the same compound, in test [2], the “LC50 TBW E (eggs)” value is 0.05%. In addition, the “LC50 CL” value in test [3] is reported as 0.006%.
For the compound `CCC(C)C(=Nc1ccc(Cl)c(Cl)c1)OCc1cccc(Oc2ccccc2)c1` (stereo not drawn) [Compound 39], in test [1], the “LC50 HF” value is over 100 µg. Also, the “LC50 TBW E (eggs)” value in test [2] is over 0.1%. In test [3], the “LC50 CL” value was determined as 0.0023%.
Turning to `CC(C)C(=Nc1ccc(Cl)c(Cl)c1)OCc1cccc(Oc2cccc(F)c2)c1` [Compound 40], in test [1], the “LC50 HF” value was 36 µg. For the same compound, the “LC50 TBW E (eggs)” value in test [2] was found to be 0.08%. The “LC50 CL” value in test [3] is on record as 0.0025%.
As to `CCC(=Nc1ccc(F)cc1F)OCc1cccc(Oc2ccccc2)c1` [Compound 59], the “LC50 HF” value in test [1] turned out to be 25 µg. Besides, the “LC50 TBW E (eggs)” value in test [2] is recorded as over 0.1%. Also, the “LC50 CL” value in test [3] is given as 0.02%.
The like results for `COc1ccc(N=C(OCc2cccc(Oc3ccc(F)cc3)c2)C(C)C)cc1Cl` [Compound 110] were, in that order, 26 µg, 0.04% and 0.007%.
Take `CC(C)C(=Nc1cccc(Oc2ccccn2)c1)OCc1cccc(Oc2ccccc2)c1` [Compound 114]: the “LC50 HF” value in test [1] was found to be 92 µg. The “LC50 CL” value in test [3] is under 0.1%.
For `CCC(=Nc1ccc(F)c(Cl)c1)OCc1cccc(Oc2ccc(F)cc2)c1` [Compound 115], the “LC50 HF” value in test [1] was 10 µg. The “LC50 TBW E (eggs)” value in test [2] is listed as 0.075%. Further, in test [3], the “LC50 CL” value was 0.0012%.
The like results for `CC(Br)C(=Nc1ccc(F)c(Cl)c1)OCc1cccc(Oc2ccccc2)c1` (stereo not drawn) [Compound 118] were, in that order, 18 µg, over 0.1% and 0.0013%.
The like results for `CCCCC(=Nc1ccc(F)c(Cl)c1)OCc1cccc(Oc2ccccc2)c1` [Compound 121] were, in that order, over 100 µg, over 0.1% and 0.1%.
The corresponding values for `CCCC(=Nc1ccc(F)c(Cl)c1)OCc1cccc(Oc2ccccc2)c1` [Compound 123] are over 100 µg, over 0.1% and 0.012%.
Take `CC(C)C(=Nc1cccc(C#N)c1)OCc1cccc(Oc2ccccc2)c1` [Compound 126]: the “LC50 HF” value in test [1] was over 100 µg. In addition, in test [2], the “LC50 TBW E (eggs)” value is over 0.1%. In addition, the “LC50 CL” value in test [3] turned out to be 0.08%.
The like results for `CC(=O)c1cccc(N=C(OCc2cccc(Oc3ccccc3)c2)C(C)C)c1` [Compound 170] were, in that order, 37 µg, over 0.1% and 0.1%.
Consider `CCOc1cccc(N=C(OCc2cccc(Oc3ccccc3)c2)C(C)C)c1` [Compound 171], for which the “LC50 HF” value in test [1] is 80 µg. For the same compound, the “LC50 TBW E (eggs)” value in test [2] was over 0.1%. In addition, the “LC50 CL” value in test [3] was 0.01%.
Turning to `CC(C)C(=Nc1ccc(F)c(Cl)c1)OC(F)c1cccc(Oc2ccc(F)cc2)c1` (stereo not drawn) [Compound 502], the “LC50 HF” value in test [1] is 80 µg.
